Measurements published in patent US11014902B2, “MYC G-quadruplex stabilizing small molecules and their use” (The United States of America, as represented by the …, priority 2015, dated 2021).
Where two headings read alike, the source gives them in different places.

Experiments:
L363 cells [1] = test: L363 cell viability (MTS); format: cell-based, human; conditions: Homo sapiens
Protocol: Since two thirds of multiple myeloma cases involve deregulated c-MYC expression (Kuehl and Bergsagel, Blood 2012, 120, 2351; Shou, et al., Proc Natl Acad Sci USA 2000, 97, 228), we elected to evaluate the cell viability effects of Compound 1 in a multiple myeloma model. […] This suppression was maintained over 72 hours, which is notable given the characteristic rapid replenishment of the protein—a phenomenon that complicates targeting c-Myc at the protein level (FIG. 4C). This effect was maintained across a genetically diverse set of 4 multiple myeloma lines. We observed decreases in c-MYC translation in all lines tested, and this effect also correlated with decreases in viability (FIG. 4D).
Human multiple myeloma and Burkitt's Lymphoma cell lines L363, CA46, MM-1R, KMS-11, and MM-1S were cultured and authenticated as previously described (Simmons, et al., Molecular oncology 2014, 8, 261). All plasma derived cell lines were cultured in RPMI-1640 (2 mM L-glutamine, 10% fetal bovine serum (FBS), 100 U/ml penicillin, 100 μg/ml streptomycin: Gibco) and incubated at 37° C. with 5% CO2. Viability experiments were performed in quadruplicate on 96-well plates (Costar) at designated time and dose points. MTS reagent was then directly added, incubated at 37° C. for 90 min, and absorbance of MTS formazan was read at 500 nm on an Omega 640 spectrophotometer. Percentage cell viability was normalized to the absorbance of untreated (DMSO) wells. In the case of cells harvested for their protein or RNA, pellets were flash frozen and stored at −80° C. overnight prior to use. […]

wild type Pu27 sequence = test: PCR stop assay, wild type sequence; format: biochemical; conditions: concentrations comparable to the Kd
L363 cells [2] = test: Cell cycle analysis (propidium iodide staining); format: cell-based, human; conditions: 10 μM, after 72 hours
Protocol: To further explore the mechanism of action for the anticancer activity of Compound 1, cell cycle analysis was performed and monitored for potential induction of apoptotic death. […] Additionally, minimal increases in apoptosis were observed, by Annexin V/7-AAD staining and FACS analysis; only 13% of the cells were undergoing apoptosis (FIG. 5B).

[3] = test system: NCI-60 panel of cancer cell lines; test: NCI-60 cell growth (SRB), summary across the panel; format: cell-based; conditions: 10 μM, 48 hours; for Growth Percent, Delta: delta across the panel; for Growth Percent, Mean: mean across the panel; for Growth Percent, Range: range across the panel
Protocol: (§1) This example illustrates that Compounds 1 and 23 can be used in inhibit the growth of c-Myc expressing cancer cell lines in vitro. The NCI-60 panel of cancer cell lines (see Shoemaker, Nat. Rev. Cancer, 6, 813-823, 2006, and dtp.cancer.gov/discovery_development/nci-60/) was assayed for cell growth in the presence of 10 μM Compound 1 or Compound 23 for 48 hours. At 48 hours, the assay was terminated by fixation with TCA and determination of relative cell counts by addition of Sulforhodamine B (SRB, see Alley et al., Cancer Research, 48: 589-601, 1988.). Growth percent was determined by comparison of SRB reading of a duplicate plate of cells taken at the time of compound addition to the SRB reading at the termination of the treatment. The following table provides a summary of the percent of growth of each cell line in the panel compared to control (no treatment), as well as the mean delta and range of percent growth compared to control across the panel of cell lines for each treatment condition.

[4] = test system: MYC expression in L363 cells; test: Gene expression analysis (Nanostring, qPCR), MYC; format: cell-based, human; conditions: for c-Myc expression (qPCR): L363 cells
Protocol: Gene expression analysis was performed on a panel of 770 cancer-associated genes in a multiplexed (nanostring) transcriptional assay. In addition to c-MYC itself, several c-Myc target genes were included in the panel, as were a number of other quadruplex-driven genes. […] Additionally, a third data set was collected comparing Compound 1 treatment to JQ-1 (a BET-bromodomain inhibitor) and quarfloxin (another quadruplex-binding small molecule).
The effects of Compound 1 on a number of known quadruplex-driven genes in the panel were examined further (FIG. 6). Expression levels of MYC, RB1, VEGFA, KRAS, and HIF1α, all of which are reported to be under the control of promoter G4s, and are expressed in L363 cells, were included in the panel of genes evaluated by Nanostring as discussed above. […] These changes in gene expression are in line with biophysical measurements of compound affinity. Corresponding data showing similar results is presented for Compounds 1 and 23 in FIGS. 14A and 14B. […] These observations further highlight the ability of Compound 1 and Compound 23 to specifically target the expression of c-Myc and related pathways.
The phenotype for c-MYC genetic knockdown in multiple myeloma was achieved through lentiviral transduction of shRNA for c-MYC, derived from the spinoculation of 293T cells and plasmids grown in STBL3 E. coli, and isolated with the Qiagen Plasmid Midi Kit. Aliquots of the plasmids were generously provided by Art Shaffer. RNA of treated myeloma cells at designated time points was isolated with the Qiagen RNeasy kit, and used with the nCounter Human Cancer Reference Kit (NanoString Technologies), surveying changes in expression for […] cancer-related human genes and 6 reference genes. Quantitative changes in expression were analyzed and grouped in the form of a heat map using the programming language, R. All other quantitative statistical packing was performed in GraphPad Prism.

ACHN = test: NCI-60 cell growth (SRB); format: cell-based; conditions: Renal Cancer, 10 μM, 48 hours
Protocol: as §1

OVCAR-5 = test: NCI-60 cell growth (SRB); format: cell-based; conditions: OVCAR-5, Ovarian Cancer; 10 μM, 48 hours
Protocol: as §1

SK-MEL-2 = test: NCI-60 cell growth (SRB); format: cell-based; conditions: SK-MEL-2, Melanoma; 10 μM, 48 hours
Protocol: as §1

HS 578T = test: NCI-60 cell growth (SRB); format: cell-based; conditions: Breast Cancer, 10 μM, 48 hours
Protocol: as §1

[5] = L-363, viability of L363 cells, read-out: IC50
[6] = 48 hours, 10 μM BRACO-19, 10 μM Compound 1, 7.5 μM Compound 23

Structure (SMILES) | IC50 (L363 cells [1]; L-363, 72 h, after 72 hours, read-out: IC50 myeloma cell viability) [µM] | IC50 (L363 cells [1]; [5]) [µM] | inhibition of PCR amplification (wild type Pu27 sequence) | treated cells arrested in the G1 phase (L363 cells [2]) [%] | Growth Percent, Delta [3] [%] | Growth Percent, Mean [3] [%] | Growth Percent, Range [3] [%] | MYC expression (nanostring) ([4]; 10 μM, 2 h to 48 h) | MYC expression (qPCR) ([4]; 5, 10 or 12.5 μM, 48 hours) | c-Myc expression (qPCR) [4, 6] | Growth Percent (ACHN) [%] | Growth Percent (OVCAR-5) [%] | Growth Percent (SK-MEL-2) [%] | Growth Percent (HS 578T) [%] | IC50 (L363 cells [1]; L-363, L363, read-out: IC50) [µM] | c-Myc expression (qPCR) ([4]; 5 μM, 24 or 48 hours)
Cc1ccc(NC(=O)c2c(C)oc3ccc(O)c(CN4CCCCCC4)c23)cc1 [Compound 1] | 7.6 ± 1.1 | 7.6 | dose-dependent inhibition | ~85 | 32.50 | 88.39 | 60.47 | substantially reduced | greatly reduced | reduced c-Myc expression | 93.94 | 95.63 | 99.26 | 88.40 |  | 
Cc1oc2ccc(O)c(CN3CCCCCC3)c2c1C(=O)Nc1ccc(C(F)(F)F)cc1 [Compound 23] |  | 3.6 |  |  | 67.00 | 58.56 | 94.23 |  |  | reduced c-Myc expression | 68.48 | 85.79 | 78.38 | 65.50 | 3.64 | reduced c-Myc expression
